Results taken from patent US7268161B2, “Comprehensive pharmacologic therapy for treatment of obesity including cysteine” (priority 1999, dated 2007).

Legend:
norepinephrine = conditions: drugs used in treatment of a patient for weight loss; cited from earlier work
tachyphylaxis = assay: Cysteine therapy in patients with tachyphylaxis from drugs that increase synaptic norepinephrine; format: in vivo; conditions: patients on drugs which cause increased levels of norepinephrine in the synapse
Text: The core of Tyrosine Hydroxylase is a “heme-thiolate” protein (see FIG. 1). The “heme-thiolate” protein is composed of iron in the form of a cytochrome P-450 complex and Cysteine. Patients experiencing tachyphylaxis from drugs which cause increased levels of norepinephrine in the synapse, generally have serum iron levels which are normal.

| Structure (SMILES) | increase of intersynaptic levels of norepinephrine (norepinephrine) | reversal of tachyphylaxis (tachyphylaxis) |
| --- | --- | --- |
| CC(C)(N)Cc1ccccc1 [Phentermine] | ≥ 2,500 times | – |
| N[C@@H](CS)C(=O)O [Cysteine] | – | effective in reversing the tachyphylaxis |
